# Assay results as given in paper PMC2265467 (PLoS Genetics, 2008).
# Assays:
# [1] = target: ExoS ADPRT activity (Pseudomonas aeruginosa, UniProt G3XDA1); assay: biochemical
# [2] = system: yeast expressing ExoS; assay: yeast growth recovery of yeast expressing ExoS; conditions: CUP1 promoter; library screened at 50 µM
# [3] = target: ADPRT activity of ExoA (Pseudomonas aeruginosa, UniProt P11439); assay: biochemical
# Chain of ADPRT activity of ExoA (P11439 26-638 limits assumed): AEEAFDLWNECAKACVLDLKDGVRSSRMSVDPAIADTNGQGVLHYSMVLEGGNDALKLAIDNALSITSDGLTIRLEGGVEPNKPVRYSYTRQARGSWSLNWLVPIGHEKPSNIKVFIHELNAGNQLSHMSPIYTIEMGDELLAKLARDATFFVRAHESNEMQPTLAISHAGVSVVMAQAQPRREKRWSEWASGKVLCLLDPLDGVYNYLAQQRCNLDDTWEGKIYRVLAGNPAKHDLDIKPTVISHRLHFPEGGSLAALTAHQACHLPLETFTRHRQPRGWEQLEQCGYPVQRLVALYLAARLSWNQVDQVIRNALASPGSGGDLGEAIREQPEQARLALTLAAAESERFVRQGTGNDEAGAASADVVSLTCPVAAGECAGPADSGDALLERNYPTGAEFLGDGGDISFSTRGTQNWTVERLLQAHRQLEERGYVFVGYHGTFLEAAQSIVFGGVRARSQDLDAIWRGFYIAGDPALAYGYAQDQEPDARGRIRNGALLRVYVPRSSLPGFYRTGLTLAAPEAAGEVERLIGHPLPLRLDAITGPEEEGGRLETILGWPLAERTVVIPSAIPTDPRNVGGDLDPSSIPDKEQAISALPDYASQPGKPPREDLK
# Chain of ExoS ADPRT activity (G3XDA1 whole entry, looked up): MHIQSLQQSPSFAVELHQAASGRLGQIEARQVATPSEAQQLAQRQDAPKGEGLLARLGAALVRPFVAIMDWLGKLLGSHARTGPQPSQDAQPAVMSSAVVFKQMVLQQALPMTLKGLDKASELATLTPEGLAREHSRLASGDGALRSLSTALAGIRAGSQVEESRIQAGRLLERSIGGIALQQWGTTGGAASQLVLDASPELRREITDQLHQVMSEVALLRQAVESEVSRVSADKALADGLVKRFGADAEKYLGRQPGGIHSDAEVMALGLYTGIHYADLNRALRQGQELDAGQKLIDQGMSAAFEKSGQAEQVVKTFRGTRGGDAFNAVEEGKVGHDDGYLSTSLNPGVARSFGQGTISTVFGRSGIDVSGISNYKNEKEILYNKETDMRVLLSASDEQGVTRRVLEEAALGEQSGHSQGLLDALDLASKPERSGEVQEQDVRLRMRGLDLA
SMILES,IC50 [1] [µM],restoration of growth of yeast expressing ExoS (in words) [2],Ki [1] [µM],mode of inhibition of ExoS ADPRT [1],IC50 [3] [µM]
C=CCOC(=O)C1=C(C)NC(SCC(=O)Nc2nccs2)=C(C#N)C1c1cccs1 (stereo not shown) [4296-1011],6,restore yeast growth,–,–,–
"COc1ccc(-c2cc(=O)c3c(O)cc(O[C@@H]4O[C@H](CO[C@@H]5O[C@@H](C)[C@H](O)[C@@H](O)[C@H]5O)[C@@H](O)[C@H](O)[C@H]4O)cc3o2)cc1O [Diosmin, reference compound]",3,restore yeast growth,–,–,–
CCc1ccc(NC(=O)N2CC(CC)Oc3ccccc32)cc1 (stereo not shown) [exosin],–,restore yeast growth,33 ± 3,competitive inhibitor,17
CCC1CN(C(=O)Nc2ccc(C)cc2)c2ccccc2O1 (stereo not shown) [exosin-5316],63,–,–,–,–
CCC1CN(C(=O)Nc2ccc(C)cc2)c2cc(Cl)ccc2O1 (stereo not shown) [exosin-5138],12,–,–,–,–
CCC1CN(C(=O)Nc2cccc3c2CCCC3)c2ccccc2O1 (stereo not shown) [exosin-5340],129,no protective effect,–,–,–
COc1cc(O)c(C(=O)/C=C/c2ccccc2)c(OC)c1 [Flavokawain B],–,restore yeast growth,–,–,–
COc1cc(C)c(C(=O)O)c(O)c1 [Everninic acid],21,restore yeast growth,–,–,–
CCOC(=O)n1c(=O)oc2cc([N+](=O)[O-])ccc21 [0469-0796],–,restore yeast growth,–,–,–
